We go through three compounds from patent US5004738A, “1,1-dioxopenicillanoyl oxymethyl D-6-(α-(methyleneamino) phenylacetamido)-penicillanate and a process for the preparation thereof” (priority 1989, dated 1991).

≈ marks a conversion by molar mass, not a printed value.

Assay [1] concerns gram-positive and gram-negative bacteria. To be noted: cited from earlier work.
Assay [2] concerns Enterobacter cloacae 132E. The assay is described as follows: In vitro antibacterial activity test (agar dilution, Mueller Hinton Agar). In kind it is cell-based. To be noted: 18 hours at 37° C. The method, then: (§1) (1) In vitro antibacterial activity test
(§2) 2 fold dilutions of the testing compounds were employed by using agar dilution method of Mueller Hinton Agar. After 18 hours at 37° C., the susceptibility (MIC) of the test organism was accepted as the lowest concentration of compound capable of producing complete inhibition of growth as judged by the naked eye.
(In general: In agar dilution, organisms are placed on agar that contains the substance at set levels.)

Another assay deals with Escherichia coli DC2. The assay is described as above. To be noted: 18 hours at 37° C. In kind it is cell-based. The method, then: as §1, §2
The test system of assay [3] is Staphylococcus aureus SG511. Described as above. In kind it is cell-based. To be noted: 18 hours at 37° C. As for the experimental part:
as §1, §2

The subject of assay [4] is Streptococcus faecium MD8. The description is as above. In kind it is cell-based. To be noted: Enterococcus faecium, 18 hours at 37° C. As for the experimental part: as §1, §2
The next assay has as its system β-lactamases. To be noted: cited from earlier work.

`C=N[C@@H](C(=O)N[C@@H]1C(=O)N2[C@@H]1SC(C)(C)[C@@H]2C(=O)O)c1ccccc1` [Methanpicillin]: the “inhibition against gram-positive and gram-negative bacteria” value in assay [1] was “marked increase in inhibition against gram-positive and gram-negative bacteria”.

For the compound `C=N[C@@H](C(=O)N[C@@H]1C(=O)N2[C@@H]1SC(C)(C)[C@@H]2C(=O)OCOC(=O)[C@@H]1N2C(=O)C[C@H]2S(=O)(=O)C1(C)C)c1ccccc1` [compound (I), 1,1-dioxopenicillanoyl oxymethyl D-6-[(α-methyleneamino)phenylacetamido]-penicillanate], the MIC (as a rule, the least concentration at which growth counts as inhibited) in assay [2] was 1.56 µg/mL (≈ 2.58 µM); against Escherichia coli DC2, 1.56 µg/mL (≈ 2.58 µM); in assay [3] it was 0.098 µg/mL (≈ 0.162 µM); in assay [4] it was 0.781 µg/mL (≈ 1.29 µM).

`CC1(C)[C@H](C(=O)O)N2C(=O)C[C@H]2S1(=O)=O` [sulbactam, 3.3-dimethyl-7-oxo-4thia-1-azabicyclo(3.2.0)heptane-2-carboxylic acid, 4-4-dioxide [2S(2α,5α)]]: in the assay on β-lactamases (alone), the “inhibition of β-lactamases” value is “poor inhibitor of β-lactamases”. In addition, in the assay on β-lactamases (with β-lactamase inhibiting antibiotics), the “inhibition of the enzymatic hydrolysis of antibiotics” value was “modest increase in inhibition of the enzymatic hydrolysis of antibiotics”.
